Measured values: patent US20250368638A1, “BICYCLIC INHIBITORS OF NICOTINAMIDE […], COMPOSITIONS AND USES THEREOF” (President and Fellows of Harvard College, priority 2021, published 2025)
Values joined by “and” are separate entries in the source; they are usually repeats but may differ in a detail not shown here. Equal values may be shown once.

What was measured:
recombinant human NNMT = target: T1, recombinant human NNMT (Homo sapiens, UniProt P40261); experiment: in vitro NNMT enzyme inhibition assay (Promega MTase-Glo Methyltransferase Assay); type: biochemical; settings: 40 nM recombinant human NNMT, 8 μM nicotinamide, 6.7 μM SAM, 20 minutes
T1 sequence (P40261 1-264): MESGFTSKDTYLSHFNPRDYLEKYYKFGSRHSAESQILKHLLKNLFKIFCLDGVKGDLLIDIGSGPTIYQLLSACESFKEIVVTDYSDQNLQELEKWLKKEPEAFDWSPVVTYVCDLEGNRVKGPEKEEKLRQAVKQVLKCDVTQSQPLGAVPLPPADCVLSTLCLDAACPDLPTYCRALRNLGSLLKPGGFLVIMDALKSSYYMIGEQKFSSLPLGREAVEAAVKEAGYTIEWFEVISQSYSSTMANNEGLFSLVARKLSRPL
Description: NNMT biochemical activity for was evaluated using the Promega Mtase-Glo Methyltransferase Assay kit. Assays were performed in a white, flat-bottomed 96 well plate. […] Reactions were performed for 20 minutes at room temperature. MTase-Glo reagent and MTase-Glo detection solution were added according to manufacturer's instructions and luminescence signal measured with a SpectraMax i3 plate reader and data analyzed with GraphPad Prism version 9. Scheme 16 depicts a visual summary of the Promega MTase-Glo Methyltransferase assay used to assess biochemical activity of novel inhibitors.

K562 (ATCC) cells = experiment: Cellular potency: 1-MNA levels in K562 cells after compound incubation; type: cell-based; settings: Homo sapiens, 24 h incubation
Description: Cellular potency was measured in K562 (ATCC) cells via measuring (1-methyl nicotinamide) 1-MNA levels after compound incubation at varying concentrations overnight. Cells were plated at 1 million per well and were incubated for 24 h with compounds at indicated concentrations. Cells were collected by pipetting and extracted with 200 ul acetonitrile containing internal deuterated standard 10 ng/ml d4-1-MNA. Samples were analyzed on an Agilent 64-60 Triple Quad LC/MS with Agilent 1290 Infinity HPLC using a Restek Allure 5 um PPFP column 150 mm×2.1. The mobile phase A was 2.5 mM ammonium formate in water, and mobile phase B was methanol with 0.1% formic acid, delivered at 0.25 mL/min. The capillary voltage was set to 2400V and the nozzle at 300V. The drying gas temperature was 240° C., the drying gas flow rate was 4 L/min, and the nebulizer pressure was 40 psi. The mass spectrometer was run in multiple reaction monitoring mode. Mass transitions were m/z 137.1 à 94.1 for 1-MNA and m/z 141.1 à 98.1 for d4-MNA.

FIG. 20 = experiment: FIG. 20
Text: Table printed on a drawing sheet, FIG. 20
The patent's description of the figure: FIG. 20 is a table summarizing mean PK parameters of various compound 11 samples after different PO dosages in female C57B16/N mice.
First reader's note: The asterisks on two AUC values are not explained on the sheet; the first grid row holds only the heading 'PK Parameter'.

[1] = Permeability assay in Caco-2 cells; settings: human; for Papp A→B at 2 h, 5 μM / Papp B→A at 2 h, 5 μM / efflux ratio at 2 h, 5 μM: Caco-2, pH 7.4; for recovery at 2 h, 5 µM: Caco-2
Description: Preparation of Caco-2 Cells: 50 μL and 25 mL of cell culture medium were added to each well of the Transwell insert and reservoir, respectively. And then the HTS transwell plates were incubated at 37° C., 5% CO2 for 1 hour before cell seeding. […] Cell culture medium was replaced every other day, beginning no later than 24 hours after initial plating.
Preparation of Stock Solutions: The stock solutions of control and test compounds were prepared in DMSO at the concentration of 10 mM. Digoxin, Prazosin and propranolol were used as control compounds in this assay.
Assay Procedures: The Caco-2 plate was removed from the incubator and washed twice with pre-warmed HBSS (10 mM HEPES, pH 7.4), and then incubated at 37° C. for 30 minutes. The stock solutions of controls and Test compounds were diluted in DMSO to get 1 mM solutions and then diluted with HBSS (10 mM HEPES, pH 7.4) to get 5 μM working solutions. The final concentration of DMSO in the incubation system was 0.5%. To determine the rate of drug transport in the apical to basolateral direction. Add 125 μL of the test compounds to the Transwell insert (apical compartment), and transfer 50 μL sample (DO sample) immediately from the apical compartment to a new 96-well plate. Fill the wells in the receiver plate (basolateral compartment) with 235 μL of HBSS (10 mM HEPES, pH 7.4). To determine the rate of drug transport in the basolateral to apical direction. Add 285 μL of the test compounds to the receiver plate wells (basolateral compartment), and transfer 50 μL sample (DO sample) immediately from the basolateral compartment to a new 96-well plate. Fill the Transwell insert (apical compartment) with 75 μL of HBSS (10 mM HEPES, pH 7.4). Time 0 samples were prepared by transferring 50 μL of 5 μM working solution to wells of the 96-deepwell plate, followed by the addition of 200 μL cold acetonitrile containing appropriate internal standards (100 nM alprazolam, 200 nM labetalol, 200 nM caffeine and 200 nM diclofenac). The plates were incubated at 37° C. for 2 hours. […] Samples were vortexed for 5 minutes and then centrifuged at 3,220 g for 40 minutes. An aliquot of 100 μL of the supernatant was mixed with 100 μL of ultra-pure water to use for LC-MS/MS analysis. To determine the Lucifer Yellow leakage after 2 hour transport period, stock solution of Lucifer yellow was prepared in water and diluted with HBSS (10 mM HEPES, pH 7.4) to reach the final concentration of 100 μM. 100 μL of the Lucifer yellow solution was added to each Transwell insert (apical compartment), followed by filling the wells in the receiver plate (basolateral compartment) with 300 μL of HBSS (10 mM HEPES, pH 7.4). The plates were incubated at 37° C. for 30 minutes. 80 μL samples were removed directly from the apical and basolateral wells (using the basolateral access holes) and transferred to wells of new 96 wells plates.

FIG. 19 = experiment: FIG. 19
Description: Table printed on a drawing sheet, FIG. 19
Footnotes: %Q: The percent of compound remaining after 60 minutes of exposure to liver microsomes
The patent's description of the figure: FIG. 19 is a table summarizing PK/PD data for compounds 1 to 3 and 11.
First reader's note: The CL value of Compound 11 (36.1) is boxed on the sheet.

[2] = Caco-2, pH 7.4, Recovery (%) AP-BL
[3] = Caco-2, pH 7.4, Recovery (%) BL-AP

| SMILES | IC50 (recombinant human NNMT) | Papp A→B at 2 h, 5 μM [1] | Papp B→A at 2 h, 5 μM [1] | efflux ratio at 2 h, 5 μM [1] | recovery at 2 h, 5 µM [1, 2] | recovery at 2 h, 5 µM [1, 3] | other results |
| --- | --- | --- | --- | --- | --- | --- | --- |
| Cc1c(C(N)=O)cnc2c1C[C@@H](C)N2 [Compound 19A] | 28 nM and 28 to 43 nM | – | – | – | – | – | IC50 (K562 (ATCC) cells): 12 nM |
| C[C@@H]1Cc2cc(C(N)=O)cnc2N1 [compound 11] | – | – | – | – | – | – | AUClast (h*ng/mL) (FIG. 20): 54,351 h*ng/mL; F(%) (FIG. 20): >100%; T1/2 (FIG. 20): 41.6 min and 50.5 min and 42.5 min; Tmax (FIG. 20): 20 min and 34.8 min |
| Cc1c(C(N)=O)cnc2c1CC(C)N2 (stereo not shown) [Compound 18] | 848 nM | – | – | – | – | – | – |
| CC(C)NCC(O)COc1cccc2ccccc12 (stereo not shown) [Propranolol] | – | 26.9 ×10⁻⁶ cm/s | 16.6 ×10⁻⁶ cm/s | 0.62 | 80% | 88.5% | – |
| C[C@H]1Nc2ncc(C(N)=O)cc2[C@@H]1C [Compound 26A] | 20 nM | – | – | – | – | – | IC50 (K562 (ATCC) cells): 114 nM |
| C[C@H]1O[C@@H](O[C@H]2[C@@H](O)C[C@H](O[C@H]3[C@@H](O)C[C@H](O[C@H]4CC[C@@]5(C)[C@H](CC[C@@H]6[C@@H]5C[C@@H](O)[C@]5(C)[C@@H](C7=CC(=O)OC7)CC[C@]65O)C4)O[C@@H]3C)O[C@@H]2C)C[C@H](O)[C@@H]1O [Digoxin] | – | 0.67 ×10⁻⁶ cm/s | 19 ×10⁻⁶ cm/s | 28.2 | 79.1% | 94.5% | – |
| NC(=O)c1cnc2c(c1)CCN2 [Compound 1] | 105 nM | – | – | – | – | – | %Q (Human) (FIG. 19): 101.05%; %Q (Mouse) (FIG. 19): 88.98%; AUClast (FIG. 19): 255 ng·h/mL; CL (FIG. 19): 64.2 mL/min/kg; T1/2 (FIG. 19): 10.9 min; Vss (FIG. 19): 0.904 L/kg |
| COc1cc2nc(N3CCN(C(=O)c4ccco4)CC3)nc(N)c2cc1OC [Prazosin] | – | 9.44 ×10⁻⁶ cm/s | 28.9 ×10⁻⁶ cm/s | 3.06 | 77% | 90.4% | – |
